Test results as given in patent US7449466B2, “Cyclic aminophenyl sulfamate derivative” (Aska Pharmaceutical Co., Ltd., priority 2003, dated 2008).

Key:
MCF-7 cells = test: MCF-7 cell proliferation measurement (MTT) for examining estrogenic activity; assay type: cell-based, human; conditions: 4 days, 570 nm
Protocol: (3) MCF-7 Cell Proliferation Measurement for Examining Estrogenic Activity:
Stimulation of MCF-7 cell proliferation induced by estrogenic activity of each test compound was measured.
MCF-7 cells were cultured in 10% fetal bovine serum (FBS)-containing RPMI 1640 medium which was free from Phenol Red, using a 75 cm^2 culture flask. Then the medium was changed to RPMI 1640 medium containing 10% of FBS from which emdogenous steroid had been eliminated by charcoal treatment but containing no Phenol Red. Renewing the medium every two days, the culture was continued for 4 days. By this step estrogen was removed from the MCF-7 cells.
The MCF-7 cells were seeded on 96-well plates, 2,000 cells per well, and cultured for 24 hours to immobilize the cells on the plate. After the cell immobilization, the medium in each well was changed to RPMI 1640 medium containing 10^−6M test compound and 10% of charcoal-treated FBS but containing no Phenol Red, and the culture was continued for further 4 days, during which the medium was changed every day to one newly prepared before the use. Also control wells to which no test compound was added were provided.
After the end of the culture, the cell proliferation was measured by MTT (3-(4,5-dimethylthiazol-2-yl)-2,5-diphenyl-2H-tetrazolium bromide; Sigma-Aldrich Japan Co.) method. That is, an MTT solution as dissolved in PBS at a concentration of 5 mg/mL was added to the 96-well plate accommodating the cells, at a rate of 10 μL/well, followed by 2 hours' incubation at 37° C. After the end of the incubation, the medium was removed and the formazan which was taken into the cells and changed was dissolved with 100 μL of dimethylsulfoxide. Absorbance of the formazan was measured at wavelength 570 nm, using a microplate reader, subtracting the 630 nm background.
As shown by the Table 3, absorbance values of the wells to which the test compounds were added were invariably less than 150% of the absorbance of the control well, and it was confirmed that the test compounds were free of estrogenic activity.

steroid sulfatase = biological target: T1, steroid sulfatase (Homo sapiens, UniProt P08842); test: Steroid sulfatase inhibitory activity (in vitro), microsomal fraction of MCF-7 cells, [3H]estrone-3-sulfate hydrolysis; assay type: biochemical; design: microsomal fraction of MCF-7 human breast cancer cells was used; endogenous in cells; host or cells: MCF-7 human breast cancer cells (microsomal fraction); conditions: MCF-7 microsomal fraction, 37° C., 30 minutes
T1 sequence (P08842 22-583): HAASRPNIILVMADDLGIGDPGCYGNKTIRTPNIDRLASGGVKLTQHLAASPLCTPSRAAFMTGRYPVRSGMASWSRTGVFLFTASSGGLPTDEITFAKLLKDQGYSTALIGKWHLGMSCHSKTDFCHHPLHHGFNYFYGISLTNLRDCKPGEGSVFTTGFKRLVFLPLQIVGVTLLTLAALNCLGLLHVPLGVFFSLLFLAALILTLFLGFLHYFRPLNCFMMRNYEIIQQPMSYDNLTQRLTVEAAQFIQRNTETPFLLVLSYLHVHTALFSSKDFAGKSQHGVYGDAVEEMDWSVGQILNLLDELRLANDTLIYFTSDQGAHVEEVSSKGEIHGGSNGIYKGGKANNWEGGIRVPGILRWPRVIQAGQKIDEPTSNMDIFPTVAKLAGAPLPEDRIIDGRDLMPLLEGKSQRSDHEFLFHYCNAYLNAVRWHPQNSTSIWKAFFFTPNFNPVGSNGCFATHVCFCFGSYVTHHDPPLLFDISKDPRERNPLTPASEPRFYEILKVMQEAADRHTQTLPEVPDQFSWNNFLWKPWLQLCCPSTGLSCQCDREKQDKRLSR
Protocol: (1) Measurement of Steroid Sulfatase Inhibitory Activity (in vitro):
As the source of steroid sulfatase enzyme, microsomal fraction of MCF-7 human breast cancer cells was used.
To phosphate buffered saline (PBS), one of the test compounds, the microsomal fraction and 50 μL of 60 μM estrone-3-sulfate containing about 100 nCi of [6,7-^3H]estrone-3-sulfate (purchased from Perkin Elmer Life Sciences, Boston, Mass., USA; specific activity, 40-60 Ci/mmol) were added to make the total amount of the reaction system 150 μL, which was incubated at 37° C. for 30 minutes. After the incubation, 50 μL of PBS containing about 2 nCi of [4-^14C] estrone (purchased from Perkin Elmer Life Sciences, Boston, Mass., USA; specific activity 45-60 mCi/mmol) was added and stirred. Further 800 μL of toluene was added, and the whole system was thoroughly shaken for 30 seconds, followed by centrifugation at 2,000×g for 10 minutes to separate the acqueous phase from the organic phase. A part (400 μL) of the organic phase was taken and measured of its ^3H and ^14C contents with scintillation spectrometer.
The mass of hydrolyzed [6,7-^3H]estrone-3-sulfate was calculated from the count number of the obtained ^3H (as corrected regarding the amount of the used organic phase and the recovered amount of [4-^14C]estrone) and the specific activity of the substrate ([6,7-^3H]estrone-3-sulfate) to determine the steroid sulfatase inhibitory rate of each test compound.

With `NS(=O)(=O)Oc1ccc(N2CCN(CCCC3CCCCC3)CC2)cc1F` [Example 24, 4-[4-(3-cyclohexylpropyl)piperazin-1-yl]-2-fluorophenyl-O-sulfamate] the “Absorbance relative to that of the control well (10^−6 M, %)” value (MCF-7 cells) was 74.6%, the “Inhibitory rate (%) (10^−6 M)” value (steroid sulfatase; 10^−6 M test compound) was 88.8% and the “Inhibitory rate (%) (10^−7 M)” value (steroid sulfatase; 10^−7 M test compound) was 31.1%.
